Where a name gives a salt, the structure may show the parent alone.
Tests used:
[1] = tested on: anaesthetised rats; experiment: Intracavernous and blood pressure recording in rats; assay type: in vivo, rat; conditions: for decrease of blood pressure: after injection of 1000 μg/kg intracavernous; for effect on ICP (in words): intracavernous injection; for hypotension (in words, FIG. 1): marked hypotension defined as decrease of blood pressure equal to or higher than 40%
Protocol: Rats were anaesthetised by an intraperitoneal injection of urethane (1.5 g/kg in sterile saline) and placed on an homeothermic blanket. Their temperature was maintained at 37° C. Rats were tracheotomized to facilitate spontaneous breathing and to prevent aspiration of saliva. A catheter filled with heparinized saline (25 IU/ml) was placed into the carotid to record mean blood pressure (BP, mmHg). The penis was desheathed and the corpora cavernosa were exposed. A 25-gauge stainless-steel needle was inserted into one corpus cavernosum to record intracavernous pressure (ICP in mmHg). […] Pressure catheters were connected to pressure transducers (Model 750, Elcomatic Ltd, Glasgow, UK).
Following a resting period of 10 minutes, the compound solvent was delivered intracavernously (50 μl/injection). Then, increasing doses of one compound were injected every ten minutes by the same route. Five injections (one solvent plus four cumulative doses) were performed in each rat, and five rats were used for the study of one compound. For each injection and for each compound, mean BP averaged over the ten minutes following the injection was measured. The maximal ICP value reached during the ten-minute period following an injection was also recorded. In these experiments, all the compounds tested were dissolved and diluted in propylene glycol-Sorensen solvent.

[2] = tested on: anaesthetised dogs; experiment: Intracavernous and blood pressure recording in dogs; conditions: for increase of ICP in comparison with basal ICP values: 1000 μg/kg (1000 μg given for prazosin, phentolamine) intracavernous; for effect on ICP (in words): intracavernous injection
Protocol: (§3) Male beagle dogs were anaesthetised with pentobarbital sodium (i.v. Nembutal, 35 mg/kg for induction and 4 mg/kg/h for maintenance) and intubated with an endotracheal cuffed tube to facilitate free ventilation. A collateral of the left femoral vein was cannulated with a PE catheter for infusion of the anaesthetic. Systemic BP was monitored via a Mikro-tip 6F (Millar Instruments) pressure transducer introduced into the aortic arch through the right common carotid artery. ICP was measured by means of a 20-gauge needle placed into the left or right corpus cavernosum and the same needle was used for intracavernous injection of the drugs. The needle was attached to a catheter filled with heparinized saline (25 IU/mL). […] The compounds to be tested were injected intracavernously in a volume of 0.5 ml and, after each injection, the needle was flushed with 0.5 ml of saline. The vehicles for compound dissolution were tested before the first dose of each drug. The compounds were administered in a cumulative way, with a 30-minute interval between doses. ICP (mmHg) was measured at the peak effect after the administration of the compounds. The duration of tumescence (DT, min) was measured from the beginning of the rise of ICP over its basal value up to the return to baseline. The systolic blood pressure and diastolic blood pressure (mmHg) were measured at the peak effect after the administration of compounds, in order to evaluate the effects of the compounds on BP independently from the effects on ICP. Moreover, the systolic blood pressure was measured at the time of maximal ICP value after intracavernous injection, to evaluate the ICP/BP ratios. […] The data were reported as mean ±s.e. of the mean, or percent variation (±s.e.) of the basal values.

[3] = tested on: anaesthetised dogs; conditions: dog, in vivo
Protocol: as §3

[4] = molecular target: T1, human α1d-adrenoceptor (Homo sapiens, UniProt P25100); experiment: [3H]Prazosin binding, cloned human α1d-adrenoceptor in CHO cell membranes; conditions: read-out: Affinity (Ki) α1d, human cloned receptors
T1 construct: expressed in transfected cells
T1 sequence (P25100 1-572): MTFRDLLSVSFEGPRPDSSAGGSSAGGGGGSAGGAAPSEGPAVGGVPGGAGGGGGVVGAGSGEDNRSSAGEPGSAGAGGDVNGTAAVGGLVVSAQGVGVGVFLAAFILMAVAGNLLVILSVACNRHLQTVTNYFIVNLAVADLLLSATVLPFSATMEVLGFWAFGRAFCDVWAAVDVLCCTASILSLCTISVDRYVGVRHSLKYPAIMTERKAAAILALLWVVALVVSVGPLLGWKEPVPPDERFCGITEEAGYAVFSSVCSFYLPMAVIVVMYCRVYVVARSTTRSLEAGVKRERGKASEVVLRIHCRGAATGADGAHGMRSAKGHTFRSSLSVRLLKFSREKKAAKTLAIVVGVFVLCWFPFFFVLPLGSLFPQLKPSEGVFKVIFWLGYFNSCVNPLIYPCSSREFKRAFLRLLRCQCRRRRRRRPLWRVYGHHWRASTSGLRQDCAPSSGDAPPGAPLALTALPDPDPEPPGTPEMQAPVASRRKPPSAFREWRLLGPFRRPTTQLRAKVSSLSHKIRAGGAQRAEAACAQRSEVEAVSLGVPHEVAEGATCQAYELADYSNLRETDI
Protocol: (§1) Binding to cloned human α1-adrenoceptor subtypes was performed in membranes from CHO cells (Chinese hamster ovary cells) transfected by electroporation with DNA expressing the gene encoding each α1-adrenoceptor subtype. […] The incubation was stopped by addition of ice-cold Tris buffer and rapid filtration through 0.2% polyethyleneimine-pretreated Whatman GF/B or Schleicher & Schuell GF52 filters.
(§2) Data are expressed as mean Ki. All patents and other references cited herein are incorporated by reference in their entirety.

[5] = molecular target: T2, human α1a-adrenoceptor (Homo sapiens, UniProt P35348); experiment: biochemical
T2 sequence (P35348 1-466): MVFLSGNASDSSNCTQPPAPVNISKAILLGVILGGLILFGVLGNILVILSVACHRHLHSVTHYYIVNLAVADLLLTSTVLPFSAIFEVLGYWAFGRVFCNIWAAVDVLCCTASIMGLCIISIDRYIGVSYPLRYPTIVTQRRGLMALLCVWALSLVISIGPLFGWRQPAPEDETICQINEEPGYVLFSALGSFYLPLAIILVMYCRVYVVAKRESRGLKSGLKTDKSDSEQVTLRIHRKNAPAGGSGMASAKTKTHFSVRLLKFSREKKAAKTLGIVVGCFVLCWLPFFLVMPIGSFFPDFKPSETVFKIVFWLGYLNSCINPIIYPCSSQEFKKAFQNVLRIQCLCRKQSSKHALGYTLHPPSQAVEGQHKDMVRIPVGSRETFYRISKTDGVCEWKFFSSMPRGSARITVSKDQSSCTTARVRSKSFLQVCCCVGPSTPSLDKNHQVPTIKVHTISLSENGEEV

[6] = molecular target: T3, human α1b-adrenoceptor (Homo sapiens, UniProt P35368); experiment: [3H]Prazosin binding, cloned human α1b-adrenoceptor in CHO cell membranes; conditions: CHO membranes; read-out: Affinity (Ki) α1b, human cloned receptors
T3 construct: expressed in transfected cells
T3 sequence (P35368 1-520): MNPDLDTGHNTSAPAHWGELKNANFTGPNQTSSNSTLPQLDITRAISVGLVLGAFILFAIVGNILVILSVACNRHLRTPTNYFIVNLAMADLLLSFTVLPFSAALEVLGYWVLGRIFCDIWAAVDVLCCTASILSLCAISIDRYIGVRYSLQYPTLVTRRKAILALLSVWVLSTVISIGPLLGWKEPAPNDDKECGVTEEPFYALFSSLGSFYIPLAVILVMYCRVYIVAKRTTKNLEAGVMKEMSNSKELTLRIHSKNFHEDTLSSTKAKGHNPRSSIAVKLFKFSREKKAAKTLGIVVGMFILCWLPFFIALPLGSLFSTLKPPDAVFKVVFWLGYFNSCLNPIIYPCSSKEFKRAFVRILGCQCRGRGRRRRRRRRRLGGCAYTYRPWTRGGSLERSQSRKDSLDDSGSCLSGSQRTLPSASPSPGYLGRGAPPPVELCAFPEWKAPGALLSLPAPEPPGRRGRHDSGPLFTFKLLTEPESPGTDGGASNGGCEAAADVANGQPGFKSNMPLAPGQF
Protocol: as §1, §2

[7] = molecular target: T4, bovine α1a-adrenoceptor (Bos taurus, UniProt P18130); experiment: [3H]Prazosin binding, bovine α1a-adrenoceptor in COS-7 cell membranes
T4 construct: expressed in transfected cells; host or cells: COS-7 cells (transient), membranes
T4 sequence (P18130 1-466): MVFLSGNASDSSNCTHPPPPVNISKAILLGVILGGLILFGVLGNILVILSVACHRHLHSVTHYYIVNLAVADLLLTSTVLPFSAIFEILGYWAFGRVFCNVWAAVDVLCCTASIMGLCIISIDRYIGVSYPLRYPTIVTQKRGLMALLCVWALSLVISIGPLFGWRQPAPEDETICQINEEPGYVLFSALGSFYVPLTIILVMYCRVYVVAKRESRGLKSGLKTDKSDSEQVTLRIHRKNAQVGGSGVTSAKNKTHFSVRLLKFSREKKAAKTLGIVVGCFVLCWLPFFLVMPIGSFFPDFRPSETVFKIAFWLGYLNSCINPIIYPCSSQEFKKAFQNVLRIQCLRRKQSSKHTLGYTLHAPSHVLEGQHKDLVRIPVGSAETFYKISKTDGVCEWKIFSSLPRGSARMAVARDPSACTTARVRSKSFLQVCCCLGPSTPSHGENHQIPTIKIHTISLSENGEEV
Protocol: The incubation was stopped by addition of ice-cold Tris buffer and rapid filtration through 0.2% polyethyleneimine pretreated Whatman GF/B or Schleicher & Schuell GF52 filters.
as §2

SMILES: COc1cc2nc(N3CCN(C(=O)c4ccco4)CC3)nc(N)c2cc1OC [Prazosin]
- BP ([1]; 10 μg/kg intracavernous): 59.4 ± 7.7 mmHg
- ICP ([1]; 10 μg/kg intracavernous): 20.1 ± 6.4 mmHg
- BP ([1]; 30 μg/kg intracavernous): 60.0 ± 7.4 mmHg
- ICP ([1]; 30 μg/kg intracavernous): 14.9 ± 3.3 mmHg
- BP ([1]; 100 μg/kg intracavernous): 56.8 ± 7.9 mmHg
- ICP ([1]; 100 μg/kg intracavernous): 19.0 ± 6.6 mmHg
- BP ([1]; 300 μg/kg intracavernous): 41.3 ± 3.0 mmHg
- ICP ([1]; 300 μg/kg intracavernous): 18.9 ± 6.8 mmHg
- BP ([1]; 1000 μg/kg intracavernous): 43.7 ± 4.1 mmHg
- ICP ([1]; 1000 μg/kg intracavernous): 26.9 ± 3.5 mmHg
- decrease of blood pressure [1]: 41%
- effect on ICP (in words) [1]: unable to elicit any ICP increase
- hypotension (in words, FIG. 1) [1]: marked hypotension
- ICP ([2]; 30 μg/kg intracavernous): 25.5 ± 6.3 mmHg
- ICP ([2]; 100 μg/kg intracavernous): 27.0 ± 8.7 mmHg
- ICP ([2]; 300 μg/kg intracavernous): 37.5 ± 5.0 mmHg
- decrease of diastolic blood pressure ([2]; 1000 μg intracavernous): 71 mmHg
- increase of ICP in comparison with basal ICP values [2]: 36 mmHg
- ICP ([2]; 1000 μg/kg intracavernous): 52.5 ± 5.0 mmHg
- effect on ICP (in words) [2]: increased ICP at doses that induced substained hypotension
- hypotension (in words) [3]: marked hypotension

SMILES: COc1cc2nc(N3CCN(C(=O)c4ccco4)[C@H](C(=O)NC(C)(C)C)C3)nc(N)c2cc1OC [Compound C, 4-Amino-6,7-dimethoxy-2-[(3S)-3-(t-butylcarbamoyl)-4-(2-furoyl)-1-piperazinyl]-quinazoline]
- Ki [4]: 25.1 nM
- Ki [5]: 94.1 nM
- Ki [6]: 1.76 nM

SMILES: Cc1ccc(N(CC2=NCCN2)c2cccc(O)c2)cc1 [Phentolamine]
- Ki [7]: 3.22 nM
- BP ([1]; 10 μg/kg intracavernous): 79.8 ± 7.3 mmHg
- ICP ([1]; 10 μg/kg intracavernous): 12.6 ± 1.7 mmHg
- BP ([1]; 30 μg/kg intracavernous): 72.2 ± 4.3 mmHg
- ICP ([1]; 30 μg/kg intracavernous): 10.1 ± 1.4 mmHg
- BP ([1]; 100 μg/kg intracavernous): 61.1 ± 7.0 mmHg
- ICP ([1]; 100 μg/kg intracavernous): 10.5 ± 1.4 mmHg
- BP ([1]; 300 μg/kg intracavernous): 63.0 ± 2.2 mmHg
- ICP ([1]; 300 μg/kg intracavernous): 12.5 ± 2.3 mmHg
- BP ([1]; 1000 μg/kg intracavernous): 59.8 ± 3.6 mmHg
- ICP ([1]; 1000 μg/kg intracavernous): 20.6 ± 2.1 mmHg
- decrease of blood pressure [1]: 30%
- effect on ICP (in words) [1]: did not modify ICP up to 300 μg/kg
- hypotension (in words, FIG. 1) [1]: marked hypotension
- ICP ([2]; 10 μg/kg intracavernous): 24.0 ± 0.0 mmHg
- ICP ([2]; 30 μg/kg intracavernous): 20.0 ± 2.3 mmHg
- ICP ([2]; 300 μg/kg intracavernous): 16.0 ± 2.3 mmHg
- increase of ICP in comparison with basal ICP values [2]: 43 mmHg
- DT (duration of tumescence) ([2]; 1000 μg/kg intracavernous): 4.2 ± 2.1 min
- ICP ([2]; 1000 μg/kg intracavernous): 62.7 ± 24.3 mmHg
- effect on ICP (in words) [2]: increased ICP at doses that induced substained hypotension
- hypotension (in words) [3]: relevant hypotension

SMILES: COc1cc2nc(N3CCN(C(=O)c4ccc(C)o4)C4CCCCC43)nc(N)c2cc1OC (racemic) [Example 5, 4-Amino-6,7-dimethoxy-2-[(±)-4-(5-methyl-2-furoyl)-cis-octahydro-1-quinoxalinyl]-quinazoline hydrochloride.2.5H2O]
- Ki [6]: 0.24 nM

SMILES: COc1cc2nc(N3CCN(C(=O)COc4c(OC)cccc4C(C)C)C4CCCCC43)nc(N)c2cc1OC (racemic) [Example 4, 4-Amino-6,7-dimethoxy-2-[(±)-4-(2-isopropyl-6-methoxyphenoxyacetyl)-cis-octahydro-1-quinoxalinyl]quinazoline hydrochloride.2.5H2O]
- Ki [6]: 0.16 nM

SMILES: COc1cc2nc(N3CCN(C(=O)OCc4ccccc4)C4CCCCC43)nc(N)c2cc1OC (racemic) [Example 7, 4-Amino-6,7-dimethoxy-2-[(±)-4-benzyloxycarbonyl-cis-octahydro-1-quinoxalinyl]-quinazoline hydrochloride.0.75H2O]
- Ki [6]: 0.65 nM

— patent US6953800B2, “Use of selective antagonists of the α1B-adrenergic receptor for improvement of sexual dysfunction” (Recordati S.A. Chemical, priority 1999, dated 2005)
